Laboratory results from US20130289083A1, “IDO Inhibitors” (priority 2007, published 2013).
Where two headings read alike, the source gives them in different places.

Tests used:
[1] = biological target: purified human IDO protein (Homo sapiens, UniProt P14902); test: Enzymatic IDO assay (kynurenine production, absorbance 480 nm); conditions: enzymatic activity
human IDO = human IDO (Homo sapiens, UniProt P14902); test: Cell based IDO/kynurenine assay in IDO-293-T-Rex cells; conditions: kynurenine production, read-out: hIDO EC50
Sequence of human IDO (P14902 whole entry): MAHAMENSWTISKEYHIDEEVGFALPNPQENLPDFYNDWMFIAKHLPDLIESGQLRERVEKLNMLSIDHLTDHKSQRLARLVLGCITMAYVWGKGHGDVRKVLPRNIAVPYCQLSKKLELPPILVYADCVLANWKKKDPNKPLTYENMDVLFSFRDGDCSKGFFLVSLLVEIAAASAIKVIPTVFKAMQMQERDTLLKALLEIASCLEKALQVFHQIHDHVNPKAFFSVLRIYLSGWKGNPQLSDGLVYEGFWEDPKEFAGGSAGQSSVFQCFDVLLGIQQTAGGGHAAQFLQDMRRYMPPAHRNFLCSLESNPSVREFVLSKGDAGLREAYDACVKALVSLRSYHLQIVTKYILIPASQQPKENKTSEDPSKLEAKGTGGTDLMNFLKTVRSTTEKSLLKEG
Experimental: 293-T-REx™ cells (Invitrogen) constitutively express a tet operator binding repressor protein and are maintained in DMEM, 10% FBS, 1× Penicillin+Streptomycin, 2 mM L-glutamine, 5 μg/mL blasticidin at 37° C. with a 5% CO2 in air atmosphere and typically split prior to confluency. Cells were passed by splitting the culture 1/10—by removing media by aspiration, washing 1× with PBS, incubating with 0.25% trypsin/EDTA until the cells detach, disbursing the cells in fresh growth media, and plating at 1/10 dilutions in fresh growth media. For long term cryopreservation, cells are detached from the plate as described above, collected by centrifugation, resuspended in freeze medium (growth medium, 10% DMSO), stored in 1.8 mL cyropreservation vials (˜2−5×10^6 cells per vial), in liquid nitrogen vapor storage tanks.
IDOl-expressing 293-T-Rex™ cell lines were generated by stable transfection of plasmid pcDNA-tetO-IDO expressing human IDO or murine IDO under the control of the doxycycline-inducible CMV-tet promoter. Transfected cells were selected in DBZ medium (DMEM, 10% FBS, 1× Penicillin+Streptomycin, 2 mM L-glutamine, 5 μg/mL blasticidin and 25 μg/ml Zeocin) at 37° C. with a 5% CO2 in air atmosphere. Individual clones were isolated by limiting dilution cloning from these populations.
[…]. The cells incubated in Neutral medium serve as negative control of the assay. The cells incubated in Induction medium and without inhibitor serve as the positive control of the assay. The incubation is carried out for 16 h at 37° C. in a cell culture incubator. 200 μL of medium are transferred to U-bottom polypropylene 96-well plates containing 25 μL of 30% TCA, incubated 30 minutes at 60° C. and centrifuged at 3400 g for 5 minutes. 150 μL of the clear supernatant is transferred to a polystyrene 96-well plate containing 50 μL of 4% (w/v) of p-dimethylaminobenzaldehyde in acetic acid, incubated for 10 min. Kynurenine concentration is determined by measuring the absorbance at 480 nm.
The conditions of the assay were as described in the examples.

[2] = read-out: hIDO IC50, recombinant human IDO, values reported in ranges
[3] = 293T cell line stably expressing human IDO, values reported in ranges
[4] = hIDO IC50, recombinant human IDO, values reported in ranges
[5] = hIDO IC50, Table 15, recombinant human IDO
[6] = Table 15, 293T cells expressing human IDO

Sequence of purified human IDO protein (P14902 whole entry P110S/E119G): as the sequence (P14902 whole entry) above, with P110S, E119G counted along it

| SMILES | EC50 (human IDO; [3]) [µM] | IC50 [1, 4] [µM] | IC50 [1, 5] [µM] | EC50 (human IDO; [6]) [µM] | IC50 [1, 2] [µM] |
| --- | --- | --- | --- | --- | --- |
| CSC(=S)NCCc1c[nH]c2cc(F)c(F)c(F)c12 [compound 45] | 100 to 1000 | – | – | – | 100 to 1000 |
| Oc1ccccc1C(=S)NCCc1csc2ccccc12 [compound 672, N-(2-(benzo[b]thiophen-3-yl)ethyl)-2-hydroxybenzothioamide] | 20 to 100 | 100 to 1000 | – | – | – |
| S=C(NCCC1CCc2ccccc2O1)SCc1ccc2ccccc2c1 (stereo not shown) [compound 63, naphthalen-2-ylmethyl 2-(chroman-2-yl)ethylcarbamodithioate] | 20 to 100 | 20 to 100 | – | – | – |
| CSC(=S)NCCc1c[nH]c2cc(C(F)(F)F)cc(C(F)(F)F)c12 [compound 44] | 1000 to 10000 | – | – | – | 100 to 1000 |
| NCC(ON)c1ccccc1 (stereo not shown) [compound 1875, 2-(aminooxy)-2-phenylethanamine] | – | – | 10 to 100 | > 1000 | – |
| O=C1C=Cc2ccccc2C1=O [compound 167, naphthalene-1,2-dione] | 20 to 100 | < 20 | – | – | – |
| S=C(NCCc1csc2ccccc12)SCc1ccc2ccccc2c1 [compound 60] | 20 to 100 | – | – | – | 20 to 100 |
| O=C1CSC(=S)N1Cc1ccc2ccccc2c1 [compound 830, 3-(Naphthalen-2-ylmethyl)-2-thioxothiazolidin-4-one] | 20 to 100 | 20 to 100 | – | – | – |
| CC(CSC(=S)NCCc1c[nH]c2ccccc12)c1ccccc1 (stereo not shown) [compound 6, 2-Phenylpropyl 2-(1H-indol-3-yl)ethylcarbamodithioate] | 100 to 1000 | 100 to 1000 | – | – | – |
| CC(=O)C1C2CCC(C2)C1(C)C (stereo not shown) [compound 289, 1-(3,3-dimethylbicyclo[2.2.1]heptan-2-yl)ethanone] | 1000 to 10000 | 100 to 1000 | – | – | – |
| Nc1ccc2[nH]cc(CCC(=O)O)c2c1 [compound 325, 3-(5-amino-1H-indol-3-yl)propanoic acid] | 1000 to 10000 | 100 to 1000 | – | – | – |
| NOCc1cc(Cl)ccc1-c1ccc2[nH]ccc2c1 [compound 1930, O-(5-chloro-2-(1H-indol-5-yl)benzyl)hydroxylamine] | – | – | < 10 | < 10 | – |
| CSC(=S)NCCc1c[nH]c2cc(Cl)cc(Cl)c12 [compound 43] | 100 to 1000 | – | – | – | 100 to 1000 |
| S=C(NCCc1c[nH]c2ccccc12)SCc1cc2c(cc1Br)OCO2 [compound 65, (6-Bromobenzo[d][1,3]dioxol-5-yl)methyl 2-(1H-indol-3-yl)ethylcarbamodithioate] | 20 to 100 | 20 to 100 | – | – | – |
| CSC(=S)NCCc1c[nH]c2c(Cl)cc(Cl)cc12 [compound 42] | 100 to 1000 | – | – | – | 100 to 1000 |
| S=C1NC(c2ccccc2)NC(c2ccccc2)S1 (stereo not shown) [compound 152, 4,6-diphenyl-1,3,5-thiadiazinane-2-thione] | 20 to 100 | 20 to 100 | – | – | – |
| NOC(COc1ccccc1)c1ccccc1 (stereo not shown) [compound 1937, O-(2-phenoxy-1-phenylethyl)hydroxylamine] | – | – | < 10 | < 10 | – |
| COc1cc2oc(=O)cc(CSC(=S)NCCc3c[nH]c4ccccc34)c2cc1OC [compound 23, (6,7-Dimethoxy-2-oxo-2H-chromen-4-yl)methyl 2-(1H-indol-3-yl)ethyl-carbamodithioate] | 20 to 100 | 100 to 1000 | – | – | – |
| S=C(NCCc1c[nH]c2ccccc12)SCc1noc2ccccc12 [compound 52, Benzo[d]isoxazol-3-ylmethyl 2-(1H-indol-3-yl)ethylcarbamodithioate] | 20 to 100 | 20 to 100 | – | – | – |
| Oc1ccccc1C(=S)NCCc1ccccc1 [compound 634, 2-Hydroxy-N-phenethylbenzothioamide] | 100 to 1000 | 100 to 1000 | – | – | – |
| NC(CSC(=S)NCc1ccccc1)C(=O)O (stereo not shown) [compound 138, 2-amino-3-(benzylcarbamothioylthio)-propanoic acid] | 20 to 100 | 100 to 1000 | – | – | – |
| O=C1C(O)=C(CC2=C(O)C(=O)c3ccccc3C2=O)C(=O)c2ccccc21 [compound 477] | 20 to 100 | < 20 | – | – | – |
| Fc1ccc(CCSC(=S)NCCc2c[nH]c3ccccc23)cc1 [compound 3, 4-Fluorophenethyl 2-(1H-indol-3-yl)ethylcarbamodithioate] | 100 to 1000 | 100 to 1000 | – | – | – |
| S=C(NCCc1c[nH]c2ccccc12)SCCc1ccc(Br)cc1 [compound 4, 4-Bromophenethyl 2-(1H-indol-3-yl)ethylcarbamodithioate] | 20 to 100 | 100 to 1000 | – | – | – |
| O=C1NC(=S)S/C1=C\c1ccc2c(c1)OCO2 [compound 148, (Z)-5-(benzo[d][1,3]dioxol-5-ylmethylene)-2-thioxothiazolidin-4-one] | 100 to 1000 | 100 to 1000 | – | – | – |
| O=C1CSC(=S)N1Cc1ccccc1 [compound 79, 3-Benzyl-2-thioxothiazolidin-4-one] | < 20 | 20 to 100 | – | – | – |
| COC(=O)c1ccc(-c2ccc(Cl)cc2CON)cc1 [compound 1935, methyl 2′-(aminooxymethyl)-4′-chlorobiphenyl-4-carboxylate] | – | – | < 10 | < 10 | – |

Continued, in another order:

| EC50 (human IDO; [3]) [µM] | IC50 [1, 4] [µM] | IC50 [1, 5] [µM] | EC50 (human IDO; [6]) [µM] | SMILES | IC50 [1, 2] [µM] |
| --- | --- | --- | --- | --- | --- |
| – | – | < 10 | < 10 | CN(C)c1ccc(-c2ccc(Cl)cc2CON)cc1 [compound 1934, 2′-(aminooxymethyl)-4′-chloro-N,N-dimethylbiphenyl-4-amine] | – |
| 100 to 1000 | 100 to 1000 | – | – | COc1cccc(CCSC(=S)NCCc2c[nH]c3ccccc23)c1 [compound 10, 3-methoxyphenethyl 2-(1H-indol-3-yl)ethylcarbamodithioate] | – |
| 20 to 100 | 100 to 1000 | – | – | NC(CSC(=S)NCCCc1ccccc1)C(=O)O (stereo not shown) [compound 140, 2-amino-3-(3-phenylpropyl-carbamo-thioylthio)propanoic acid] | – |
| 20 to 100 | 100 to 1000 | – | – | Cc1ccc(C)c(C(C)CC(=O)O)c1 (stereo not shown) [compound 261, 3-(2,5-dimethylphenyl)butanoic acid] | – |
| 100 to 1000 | 100 to 1000 | – | – | S=C(NCCc1c[nH]c2ccccc12)SCCc1cccc(Br)c1 [compound 7, 3-Bromophenethyl 2-(1H-indol-3-yl)ethylcarbamodithioate] | – |
| 20 to 100 | 20 to 100 | – | – | Oc1ccccc1C(=S)NCc1ccc2ccccc2c1 [compound 607, 2-hydroxy-N-(naphthalen-2-ylmethyl)benzothioamide] | – |
| 100 to 1000 | 100 to 1000 | – | – | Oc1cccc2ccccc12 [compound 168, naphthalen-1-ol] | – |
| 20 to 100 | 100 to 1000 | – | – | Cc1c(O)c(=O)ccn1CCc1c[nH]c2ccccc12 [compound 552, 1-(2-(1H-indol-3-yl)ethyl)-3-hydroxy-2-methylpyridin-4(1H)-one] | – |
| 1000 to 10000 | 20 to 100 | – | – | CC1=C(CN2C(=O)c3ccccc3C2=O)C(=O)c2ccccc2C1=O [compound 464, 2-((3-methyl-1,4-dioxo-1,4-dihydronaphthalen-2-yl)methyl)isoindoline-3-dione] | – |
| 1000 to 10000 | < 20 | – | – | O=C(O)Cc1cccc2sccc12 [compound 307, 2-(benzo[b]thiophen-4-yl)acetic acid] | – |
| 100 to 1000 | 100 to 1000 | – | – | Nc1ccccc1NC(=O)CCCc1c[nH]c2ccccc12 [compound 588, N-(2-aminophenyl)-4-(1H-indol-3-yl)butanamide] | – |
| 100 to 1000 | 100 to 1000 | – | – | O=C(O)CC(=O)c1ccc(F)cc1 [compound 313, 3-(4-fluorophenyl)-3-oxopropanoic acid] | – |
| 100 to 1000 | 100 to 1000 | – | – | CN(C)c1ccc(/C=C2\CSC(=S)NC2=O)cc1 [compound 150, (Z)-5-(4-(dimethylamino)benzylidene)-2-thioxo-1,3-thiazinan-4-one] | – |
| 20 to 100 | 100 to 1000 | – | – | Oc1ccccc1C(=S)NCCc1c[nH]c2ccccc12 [compound 644, N-(2-(1H-indol-3-yl)ethyl)-2-hydroxybenzothioamide] | – |
| 20 to 100 | 20 to 100 | – | – | S=C(NCCc1c[nH]c2ccccc12)SCc1ccc2c(c1)OCO2 [compound 50, Benzo[d][1,3]dioxol-5-ylmethyl 2-(1H-indol-3-yl)ethylcarbamodithioate] | – |
| 100 to 1000 | 100 to 1000 | – | – | Nc1ccccc1NC(=O)CCc1csc2ccccc12 [compound 739, N-(2-aminophenyl)-3-(benzo[b]thiophen-3-yl)propanamide] | – |
| 20 to 100 | 100 to 1000 | – | – | O=C(Cc1csc(=S)[nH]1)NCc1c[nH]c2ccccc12 [compound 561, N-((1H-indol-3-yl)methyl)-2-(2-thioxo-2,3-dihydrothiazol-4-yl)acetamide] | – |
